Values joined by “and” are separate entries in the source; they are usually repeats but may differ in a detail not shown here. Equal entries are not always repeated.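 Protocol summary: plate cells (96-well), add compound at 5 concentrations, incubate 48 h, interpolate endpoints linearly. GI50 is the concentration that inhibits growth by half. TGI marks complete inhibition of growth.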
What follows are molecules tested on BT-549 breast (assay: NCI anticancer screen, dose series, 48 h).

Row | Structure (SMILES) | GI50 | TGI
1 | CO[C@H](C(=O)[C@@H](O)[C@@H](C)O)[C@@H]1Cc2cc3cc(O[C@H]4C[C@@H](O[C@H]5C[C@@H](O)[C@H](O)C(C)O5)[C@H](O)C(C)O4)c(C)c(O)c3c(O)c2C(=O)[C@H]1O[C@H]1C[C@@H](O[C@H]2C[C@@H](O[C@H]3C[C@@H](OC)[C@H](O)C(C)O3)[C@@H](O)C(C)O2)C(O)(O)C(C)O1 (some centres undefined) | 0.107 µM | 1.64 µM
2 | CC(=O)C1=C(O)C=C2Oc3c(C(=O)/C=C/c4cc(C(F)(F)F)cc(C(F)(F)F)c4)c(O)c(C)c(O)c3[C@]2(C)C1=O | 0.492 µM | 1.8 µM
3 | CNC(=O)c1cc(COc2nnc(Nc3ccc(Cl)cc3)c3ccoc23)ccn1 | 3.53 µM and > 10 µM | 16.6 µM and > 10 µM
4 | COc1ccc(C#Cc2ccccc2C#CCCCCO)cc1 | 21.1 µM | 46.1 µM
5 | C(=Nc1ccccc1)C1CCCC[N-]1.C(=Nc1ccccc1)C1CCCC[N-]1.[Cu+2].[O-][Cl+3]([O-])([O-])O (centres undefined) | 18.5 µM | 55.8 µM
6 | Cc1nc2ccc(CN(C)c3ccc(C(=O)N[C@@H](CCC(=O)O)C(=O)O)s3)cc2c(=O)[nH]1 |  | > 100 µM
7 | O=C(/C=C/c1ccc(B(O)O)cc1)/C=C/c1ccc(B(O)O)cc1 | 1.55 µM | 3.35 µM
8 | Cc1ccc(C(=O)N(CCCN)[C@@H](c2nc3cc(Cl)ccc3c(=O)n2Cc2ccccc2)C(C)C)cc1 | 0.043 µM and 0.0103 µM | 2.94 µM and 1.67 µM
9 | Cc1nc2sccn2c1/C=C1/C(=O)Nc2ccccc21 | 17.2 µM | > 100 µM
10 | O=[N+]([O-])c1ccc(Nc2ccccc2-c2ccccc2)c2nonc12 | 11.5 µM | 28.8 µM
11 | O=C(Nc1ccc(Cl)cc1Cl)c1ccc(NC2=C(Cl)C(=O)N(Cc3ccccc3)C2=O)cc1 | 15.6 µM | 30 µM
12 | CCCN(CCC)CCCNCc1cc(I)cc(C)c1O | 12.3 µM | 24.8 µM
13 | CC(=O)N1CCN(C2=Nc3ccccc3CO2)C1=S | 40.1 µM | > 100 µM
14 | Cc1cc(C)nc(NC(N)=NCCc2ccccc2)n1 | 3.92 µM | > 100 µM
15 | O=C(c1ccccc1)c1c(NCC(O)CN2CCCC2)n(Cc2ccccc2)c(=O)n(Cc2ccccc2)c1=O (centres undefined) | 13.1 µM | 27 µM
16 | CC(C)[C@](O)(c1ccc2cc(OC(F)F)c(OC(F)F)cc2c1)c1cn[nH]n1 | 15.6 µM and 13.3 µM | 31.1 µM and 28.5 µM
17 | COc1ccc(-c2[nH]ncc2-c2cc3c(c(OC)c2)OCC(=O)N3)cc1 | 0.469 µM | 41.5 µM
18 | O=S(=O)(Nc1ncccn1)c1ccc(N=Nc2ccc(O)c3ncccc23)cc1 | 10.7 µM | 27 µM

Row | Structure (SMILES) | GI50 | TGI
19 | CC(C)(C)OC(=O)NCCNC1=CC(=O)c2nc3ccccc3c3ccnc1c23 | 20.5 µM | 51.7 µM
20 | Cc1ccccc1NC(=S)Nc1ccccn1 | > 100 µM | > 100 µM
21 | COC1=CC(c2ccc[nH]2)=N/C1=C\c1[nH]c(C)c(C(=O)OCc2ccccc2)c1C | 0.253 µM | 3.46 µM
22 | C[n+]1c(/C=C\C=C\N2CCCCC2)sc2ccccc21 | 0.261 µM | 3.5 µM
23 | COc1cccc(C2CC(c3cc(OC)c(OC)c(OC)c3)=NN2)c1 (centres undefined) | 3.35 µM | 19.1 µM
24 | COc1cc(-c2nn3c(/C=C4/C(=O)Nc5ccccc54)c(-c4ccc(C)cc4)nc3s2)cc(OC)c1OC | 4.69 µM | 38.1 µM
25 | COc1ccc2c(c1)C(=O)c1c-2n(CCCN)c(=O)c2ccccc12 | 0.82 µM | 2.63 µM
26 | COC(=O)[C@@H](NC(=O)NC(=O)NC(=O)CI)C(C)C | 11.5 µM | 23.7 µM
27 | COc1cc2c(/C=N\N=C(N)N)c(Cl)[nH]c2cc1C | 13.2 µM | 27.8 µM
28 | CN1CCN(c2ccc(C(=O)Nc3n[nH]c4ccc(Cc5cc(F)cc(F)c5)cc34)c(NC3CCOCC3)c2)CC1 | 5.61 µM and 1.8 µM | > 10 µM and 3.28 µM
29 | C=C1C(=O)O[C@H]2[C@H]1CC/C(CNC(=O)/C=C/c1ccc(Br)cc1)=C\CC[C@@]1(C)O[C@@H]21 | 1.14 µM | 2.95 µM
30 | Nc1ccn(C2OC(CO)C(O)C2F)c(=O)n1 (centres undefined) | > 5000 µM | > 5000 µM
31 | COc1cc(/C(Cl)=C/C=C/C(=O)c2c(C)[n+]([O-])c3ccc(Cl)cc3[n+]2[O-])cc(OC)c1OC | 6.47 µM | 39.4 µM
32 | Cc1c2cnccc2c(C)c2c1c1cc(C3OCCCO3)ccc1n2C | 0.52 µM | 2.11 µM
33 | CN(C)CCCOc1ccccc1NC1=C(Cl)C(=O)C(Nc2ccccc2OCCCN(C)C)=C(Cl)C1=O | 1.62 µM | 2.99 µM
34 | Cc1c2cc[nH]c(=O)c2c(C)c2c1[nH]c1cc(OCCN3CCN(C)CC3)ccc12 | 2.71 µM | 11.4 µM
35 | COc1cc(C(=O)OCCCCCCCCCCC[P+](c2ccccc2)(c2ccccc2)c2ccccc2)ccc1O | 0.271 µM | 1.26 µM

Reference: PubChem BioAssay (NCI)
